From paper PMC8286840, “Identifying SARS-CoV-2 antiviral compounds by screening for small molecule inhibitors of Nsp3 papain-like protease” (Biochemical Journal, 2021) come the findings set out here.

The target in experiment [1] is T1, SARS-CoV-2 PLpro (nsp3 1564–1878) (Severe acute respiratory syndrome coronavirus 2, UniProt P0DTD1). Kind of experiment: biochemical. Details: FRET-quenched peptide (Pro3) cleavage by PLpro, 10 min pre-incubation, slope over 20 min, normalised to no-compound control. The conditions noted are these: low concentration screen, read-out: % of control remaining.
Experiment [2] addresses T1, SARS-CoV-2 PLpro (nsp3 1564–1878). Description: biochemical. Details: FRET-quenched peptide (Pro3) cleavage by PLpro, 10 min pre-incubation, slope over 20 min, normalised to no-compound control. The conditions noted are these: high concentration screen, read-out: % of control remaining.

Where a name gives a salt, the structure may show the parent alone. Read-outs that look alike come from different tables or passages of the source.

With `OCCOCCN1CCN(C2=Nc3ccccc3Sc3ccccc32)CC1` [Quetiapine (fumarate)], in experiment [1] (Well no.=6237), the remaining activity at 1.25 µM was 98.2%. In addition, the remaining activity at 3.75 µM in experiment [2] (Well no.=6237) is 94.3%.
On to `CN1C[C@@H](NS(=O)(=O)N(C)C)C[C@@H]2c3cccc4c3c(cn4C)C[C@H]21` [Mesulergine hydrochloride], for which the remaining activity at 1.25 µM in experiment [1] (Well no.=897) is 106%. Also, the remaining activity at 3.75 µM in experiment [2] (Well no.=897) worked out at 105%.
For the molecule `CC(C)Nc1cccnc1N1CCN(C(=O)c2cc3cc(NS(C)(=O)=O)ccc3[nH]2)CC1` [Delavirdine mesylate], in experiment [1] (Well no.=1676), the remaining activity at 1.25 µM was found to be 108%. Further, the remaining activity at 3.75 µM in experiment [2] (Well no.=1676) turned out to be 101%.
Regarding `CCCCCCCCCCCCCCCCCC(=O)NCC(COP(=O)([O-])OCC[N+](C)(C)C)OC` (racemic) [rac-2-Methoxy-3-octadecanamido-1-propylphosphocholine], the remaining activity at 1.25 µM in experiment [1] (Well no.=1126) was 96.3%. Besides, in experiment [2] (Well no.=1126), the remaining activity at 3.75 µM was 96.8%.
Turning to `CC(C)(C)NCC(O)c1cc(O)cc(O)c1` (stereo not shown) [Terbutaline (sulfate)], in experiment [1] (Well no.=6709), the remaining activity at 1.25 µM turned out to be 106%. Also, the remaining activity at 3.75 µM in experiment [2] (Well no.=6709) is 106%.
`O=C(O[C@H]1C[C@H]2CC[C@@H](C1)[N+]21CCCC1)C(O)(c1ccccc1)c1ccccc1` [Trospium (chloride)]: the remaining activity at 1.25 µM in experiment [1] (Well no.=6571) was 103%. Besides, in experiment [2] (Well no.=6571), the remaining activity at 3.75 µM amounted to 102%.
Regarding `Cc1ccc(F)cc1C(=O)Nc1ccc(C(=O)N2Cc3cccn3Cc3ccccc32)c(Cl)c1` [Lixivaptan], the remaining activity at 1.25 µM in experiment [1] (Well no.=6957) is 91.5%. Further, the remaining activity at 3.75 µM in experiment [2] (Well no.=6957) is 88.9%.
Take `COc1ccccc1N1CCN(CCCCN2C(=O)c3ccccc3C2=O)CC1` [NAN-190 (hydrobromide)]: the remaining activity at 1.25 µM in experiment [1] (Well no.=7191) is 98.5%. Also, the remaining activity at 3.75 µM in experiment [2] (Well no.=7191) was found to be 94.2%.
For `NC(=O)c1ncn([C@@H]2O[C@H](CO)[C@@H](O)[C@H]2O)c1O` [Mizoribine], the remaining activity at 1.25 µM in experiment [1] (Well no.=876) is 105%. Further, the remaining activity at 3.75 µM in experiment [2] (Well no.=876) is 107%.
With `CN1CC[C@@H](NC(=O)Nc2ccc(C#N)cc2)C[C@@H]1c1nc2ccccc2[nH]1` [PF-04449913 maleate salt], the remaining activity at 1.25 µM in experiment [1] (Well no.=5703) was 104%. The remaining activity at 3.75 µM in experiment [2] (Well no.=5703) came out at 99.8%.
Regarding `O=c1ccn([C@@H]2O[C@H](COP(=O)(O)OP(=O)(O)OP(=O)(O)OP(=O)(O)OC[C@H]3O[C@@H](n4ccc(=O)[nH]c4=O)[C@H](O)[C@@H]3O)[C@@H](O)[C@H]2O)c(=O)[nH]1` [Diquafosol (tetrasodium)], in experiment [1] (Well no.=8837), the remaining activity at 1.25 µM stood at 101%. Further, the remaining activity at 3.75 µM in experiment [2] (Well no.=8095) amounted to 100%; in experiment [2] (Well no.=8837), 87.9%.
Regarding `O=C1O[C@H]([C@@H](O)CO)[C@H](O)[C@@H]1O` [L-Gulono-1,4-lactone], the remaining activity at 1.25 µM in experiment [1] (Well no.=6771) stood at 102%. The remaining activity at 3.75 µM in experiment [2] (Well no.=6771) was found to be 104%.
In the case of `OC[C@H]1O[C@@H](n2cnc3c(O)nc(O)nc32)[C@H](O)[C@@H]1O` [Xanthosine], the remaining activity at 1.25 µM in experiment [1] (Well no.=7397) was 106%. The remaining activity at 3.75 µM in experiment [2] (Well no.=7397) amounted to 107%.
Consider `Cc1cc(O[C@@H](CCC(F)(F)F)c2ccc(C(=O)NCCC(=O)O)cc2)cc(C)c1-c1ccc(C(C)(C)C)cc1` [Adomeglivant], for which the remaining activity at 1.25 µM in experiment [1] (Well no.=7043) stood at 99.3%. Besides, the remaining activity at 3.75 µM in experiment [2] (Well no.=7043) is 98.4%.
Turning to `O=c1cc(-c2ccc(O)cc2)oc2c([C@@H]3O[C@H](CO)[C@@H](O)[C@H](O)[C@H]3O)c(O)cc(O)c12` [Vitexin], in experiment [1] (Well no.=3396), the remaining activity at 1.25 µM came out at 95.4%. In experiment [2] (Well no.=3396), the remaining activity at 3.75 µM amounted to 97.6%.
As for `CCOc1ccc2ccccc2c1C(=O)N[C@@H]1C(=O)N2[C@@H]1SC(C)(C)[C@@H]2C(=O)O` [Nafcillin (sodium monohydrate)], in experiment [1] (Well no.=8660), the remaining activity at 1.25 µM stood at 99%. Also, in experiment [2] (Well no.=8660), the remaining activity at 3.75 µM came out at 98.1%.
As for `COc1ccc(CNC(=O)c2cc(-c3cncc(C)c3)ncc2-c2nccs2)nc1OC` [MK-3697], the remaining activity at 1.25 µM in experiment [1] (Well no.=7867) is 107%. For the same molecule, the remaining activity at 3.75 µM in experiment [2] (Well no.=7867) was 95.1%.
As for `CCN(Cc1ccccc1)C(=O)Cn1c(=O)n(C)c2cnc(-c3ccccc3)nc21` [XBD173], the remaining activity at 1.25 µM in experiment [1] (Well no.=6053) came to 102%. The remaining activity at 3.75 µM in experiment [2] (Well no.=6053) is 100%.
As for `CC(C)(C)S(=O)(=O)c1ccc2nccc(Nc3n[nH]c4ccc(F)cc34)c2c1` [GSK583], in experiment [1] (Well no.=6206), the remaining activity at 1.25 µM came to 101%. Besides, the remaining activity at 3.75 µM in experiment [2] (Well no.=6206) was 94.3%.
`Cc1ccc(S(=O)(=O)/C=C/C#N)cc1` [BAY 11-7082]: the figures for the remaining activity at 1.25 µM in experiment [1] (Well no.=79) and in experiment [1] (Well no.=2360) were 102% and 98.2%, respectively. For the same molecule, the figures for the remaining activity at 3.75 µM in experiment [2] (Well no.=79), in experiment [2] (Well no.=2360) and in experiment [2] (Well no.=6204) were 99.5%, 99.1% and 104%, respectively.
As for `Cc1nc2cc(F)c(F)cc2n1-c1cncc(Nc2ccc(C(F)(F)F)cc2)n1` [PTC-028], in experiment [1] (Well no.=7024), the remaining activity at 1.25 µM came to 106%. The remaining activity at 3.75 µM in experiment [2] (Well no.=7024) was 96.8%.
Consider `Nc1cccc(-c2cc3c(Oc4cccc(O)c4)ncnc3[nH]2)c1` [GSK3b Inhibitor XII, TWS119], for which, in experiment [1] (Well no.=2608), the remaining activity at 1.25 µM came out at 97.8%. The remaining activity at 3.75 µM in experiment [2] (Well no.=2608) was found to be 95.8%.
As to `CC(=O)NCCCCCN` [N-(5-Aminopentyl)acetamide], the remaining activity at 1.25 µM in experiment [1] (Well no.=6155) was 98.4%. The remaining activity at 3.75 µM in experiment [2] (Well no.=6155) was 89.4%.
For the molecule `CCCN(CCc1cccs1)[C@H]1CCc2c(O)cccc2C1` [Rotigotine (Hydrochloride)], the remaining activity at 1.25 µM in experiment [1] (Well no.=8157) came to 96.4%. Moreover, the remaining activity at 3.75 µM in experiment [2] (Well no.=8157) was found to be 89.4%.
For `CCOC(=O)C1=Cc2ccc(C(F)(F)C(F)(F)F)cc2N=C(N)C1` [Toll-like receptor modulator], in experiment [1] (Well no.=8077), the remaining activity at 1.25 µM was 108%. The remaining activity at 3.75 µM in experiment [2] (Well no.=8077) was found to be 95.6%.
For `OCCn1cc(-c2cnc3nnn(Cc4ccc5ncccc5c4)c3n2)cn1` [PF04217903], the remaining activity at 1.25 µM in experiment [1] (Well no.=2937) turned out to be 99.1%. For the same molecule, the remaining activity at 3.75 µM in experiment [2] (Well no.=2937) is 98.4%.
Regarding `CC(C)NCC(O)COc1ccc(CCOCC2CC2)cc1` (stereo not shown) [Betaxolol (hydrochloride)], the remaining activity at 1.25 µM in experiment [1] (Well no.=6849) was determined as 107%. The remaining activity at 3.75 µM in experiment [2] (Well no.=6849) was 102%.
On to `NCC(=O)N[C@@H](CCCN=C(N)N)C(=O)NCC(=O)N[C@@H](CC(=O)O)C(=O)N[C@@H](CO)C(=O)N1CCC[C@H]1C(=O)O` [GRGDSP (TFA)], for which, in experiment [1] (Well no.=7558), the remaining activity at 1.25 µM amounted to 102%. For the same molecule, the remaining activity at 3.75 µM in experiment [2] (Well no.=7558) is 109%.
Regarding `CCCCCCCCCCCCC/C=C/[C@@H](O)[C@H](CO)NC(=O)CCCCC` [C6 Ceramide], the remaining activity at 1.25 µM in experiment [1] (Well no.=3123) was found to be 100%. Moreover, in experiment [2] (Well no.=3123), the remaining activity at 3.75 µM was 101%.
Regarding `CCNC(=O)N1CCN(CCCC(c2ccc(F)cc2)c2ccc(F)cc2)CC1` [Amperozide hydrochloride], the remaining activity at 1.25 µM in experiment [1] (Well no.=165) was found to be 92.6%. Further, the remaining activity at 3.75 µM in experiment [2] (Well no.=165) was found to be 96.4%.
